Measured values reported in patent publication US11479563B2, “Biphenyl compound or salt thereof” (TAIHO PHARMACEUTICAL CO., LTD., priority 2017, dated 2022).
Counter-ions that a name gives are not always drawn. Like-named read-outs stand apart in the source and are kept apart here.

Experiments:
human LSD1 protein = molecular target: T1, human LSD1 protein (Homo sapiens, UniProt O60341); assay: Measurement of LSD1 inhibitory activity (in vitro); assay type: biochemical
T1 construct: purchased Abcam ab80379
Procedure: To measure the inhibitory activity, first, the compound of the present invention was serially diluted in dimethylsulfoxide (DMSO). Sequentially, the solution of the compound of the present invention in DMSO (final concentration of DMSO: 5%) and human LSD1 protein (Abcam, ab80379) were added to a reaction buffer (25 mM Tris-HCl (pH 7.5), 50 mM KCl, 2 mM CHAPS, 1 mM DTT, 0.02% BSA). The mixture was preincubated at 25° C. for 30 minutes. […] Tranylcypromine (final concentration: 3 mM) was then added thereto to terminate the reaction.

[1] = system: NCI-H146 cells (human small-cell lung cancer cell lines); assay: Cell-growth inhibition test: NCI-H146 cells; assay type: cell-based; conditions: Homo sapiens
In short: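 NCI-H146 small-cell lung cancer cells were cultured with compound or DMSO for 10 days at 37°C, 5% CO2. Viability read by CellTiter-Glo luminescence; growth rate (%) = treated/DMSO luminescence × 100.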

[2] = system: NCI-H1417 cells (human small-cell lung cancer cell lines); assay: cells; conditions: NCI-H1417, read-out: Cell-Growth Inhibition Test: NCI-H1417 Cells IC50 (nM);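 further: growth of NCI-H1417 cells over 10 days at 37 °C, read as viable-cell luminescence by CellTiter-Glo 2.0, expressed as % of DMSO-only control wells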
Procedure: (§1) Under the following conditions, an in vitro cell-growth inhibition test was performed with respect to HEL cells (human acute myelocytic leukemia cell lines), NCI-H1417 cells (human small-cell lung cancer cell lines), and NCI-H146 cells (human small-cell lung cancer cell lines).
(§2) The cells with the compound of the present invention or with dimethylsulfoxide alone were cultured at 37° C. in a 5% carbon-dioxide-containing incubator for 5 days (HEL cells) or 10 days (NCI-H1417 cells and NCI-H146 cells). After culture, the plate was allowed to stand at room temperature for 30 minutes, and 100 μL of the supernatant was removed from each well to leave 100 μL of the cell culture solution. To each well containing the remaining 100 μL of the cell culture solution, the same amount of CellTiter-Glo 2.0 Assay (Promega, Cat #: G9242) was added. The microplate was shaken with a plate mixer for 1 minute and then allowed to stand in a dark place for 10 minutes. Thereafter, the luminescence intensity of viable cells in each well was measured using a microplate reader (PerkinElmer, EnSpire). […] Cell growth rate (%)=T/C×100 T: The luminescence intensity in a well to which the compound of the present invention was added (count per second) C: The luminescence intensity in a well to which dimethylsulfoxide alone was added (count per second)

[3] = system: HEL cells (human acute myelocytic leukemia cell lines); assay: cells; conditions: read-out: Cell-Growth Inhibition Test: HEL Cells IC50 (nM);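 further: viable cell count by CellTiter-Glo 2.0 luminescence after 5 days of culture at 37 °C, growth expressed relative to DMSO-only wells as 100%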
Procedure: as §1, §2

[4] = NCI-H146, read-out: Cell-Growth Inhibition Test: NCI-H146 Cells IC50
[5] = human LSD1 protein, H3K4 (Me1)-biotin-labeled peptide 200 nM, preincubated 30 minutes, read-out: LSD1 inhibitory activity IC50
[6] = NCI-H146, read-out: Cell-Growth Inhibition Test: NCI-H146 Cells IC50 (nM)

| SMILES | IC50 (human LSD1 protein) | IC50 [1, 4] | IC50 [2] | IC50 (human LSD1 protein; [5]) | IC50 [3] | IC50 [1, 6] |
| --- | --- | --- | --- | --- | --- | --- |
| Cn1cc(C(N)=O)c2cc(-c3ccc(C(=O)N4C5CCC4C(N)C5)cc3-c3ccc(C#N)c(F)c3)c(F)cc21 [Example 236, 5-(5-((1S,2S,4R)-rel-2-amino-7-azabicyclo[2.2.1]heptane-7-carbonyl)-4′-cyano-3′-fluoro-[1,1′-biphenyl]-2-yl)-6-fluoro-1-methyl-1H-indole-3-carboxyamide-isomer-X] | 0.28 nM | 28.5 nM | 11 nM | – | – | – |
| CC(C)(O)Cn1ncc2cc(-c3ccc(CN4CC5(CCCNC5)C4)cc3-c3ccc(C#N)c(F)c3)c(F)cc21 [Example 298, 5′-((2,6-diazaspiro[3.5]nonan-2-yl)methyl)-3-fluoro-2′-(6-fluoro-1-(2-hydroxy-2-methylpropyl)-1H-indazol-5-yl)-[1,1′-biphenyl]-4-carbonitrile dihydrochloride] | – | 1 nM | 1.72 nM | 0.2 nM | 0.46 nM | – |
| CC(C)(O)Cn1ncc2cc(-c3ccc(CN4CCC5(CNC5)C4)cc3-c3ccc(C#N)c(F)c3)c(F)cc21 [Example 300, 5′-((2,6-diazaspiro[3.4]octan-6-yl)methyl)-3-fluoro-2′-(6-fluoro-1-(2-hydroxy-2-methylpropyl)-1H-indazol-5-yl)-[1,1′-biphenyl]-4-carbonitrile dihydrochloride] | – | 0.7 nM | 1.53 nM | 0.23 nM | 0.6 nM | – |
| N#Cc1ccc(-c2cc(C(=O)N3[C@@H]4CC[C@H]3C[C@@H](N)C4)ccc2-c2cc3nnn(CC4(O)CCC4)c3c(C#N)c2F)cc1F [Example 266, 5-(5-((3-endo)-3-amino-8-azabicyclo[3.2.1]octane-8-carbonyl)-4′-cyano-3′-fluoro-[1,1′-biphenyl]-2-yl)-6-fluoro-1-((1-hydroxycyclobutyl)methyl)-1H-benzo[d][1,2,3]triazole-7-carbonitrile] | – | – | 1.85 nM | – | 4.63 nM | 17.5 nM |
| CC(C)(O)Cc1ccc(-c2ccc(CN3CC[C@H](N)C3)cc2-c2ccc(C#N)c(F)c2)c(F)c1 [Example 291, (S)-5′-((3-aminopyrrolidin-1-yl)methyl)-2″,3-difluoro-4″-(2-hydroxy-2-methylpropyl)-[1,1′:2′,1″-terphenyl]-4-carbonitrile dihydrochloride] | – | – | 4.65 nM | – | 1.21 nM | 10.4 nM |
| CC(C)(O)Cn1nnc2cc(-c3ccc(C(=O)N4[C@@H]5CC[C@H]4C[C@@H](N)C5)cc3-c3ccc(C#N)c(F)c3)c(F)c(C#N)c21 [Example 251, 5-(5-((3-endo)-3-amino-8-azabicyclo[3.2.1]octane-8-carbonyl)-4′-cyano-3′-fluoro-[1,1′-biphenyl]-2-yl)-6-fluoro-1-(2-hydroxy-2-methylpropyl)-1H-benzo[d][1,2,3]triazole-7-carbonitrile] | – | – | 2.7 nM | – | 23.9 nM | 13.2 nM |
| Cc1ccc(-c2ccc(CN3C4CCC3C(N)C4)cc2-c2ccc(C#N)c(F)c2)c(F)c1 [Example 283, 5′-(((1S,2S,4R)-rel-2-amino-7-azabicyclo[2.2.1]heptan-7-yl)methyl)-2″,3-difluoro-4″-methyl-[1,1′:2′,1″-terphenyl]-4-carbonitrile-isomer-X] | – | – | 2.1 nM | – | 0.79 nM | 11.1 nM |
| CC(C)(O)Cn1nnc2cc(-c3ccc(C(=O)N4[C@@H]5CC[C@H]4C[C@@H](N)C5)cc3-c3ccc(C#N)c(F)c3)c(F)c(F)c21 [Example 161] | – | – | 2.49 nM | – | 6.88 nM | 1.09 nM |
| CC(C)(O)Cn1nnc2cc(-c3ccc(C(=O)N4C5CCC4C(N)C5)cc3-c3ccc(C#N)c(F)c3)c(F)c(Cl)c21 [Example 209, 5′-((1S,2S,4R)-rel-2-amino-7-azabicyclo[2.2.1]heptane-7-carbonyl)-2′-(7-chloro-6-fluoro-1-(2-hydroxy-2-methylpropyl)-1H-benzo[d][1,2,3]triazol-5-yl)-3-fluoro-[1,1′-biphenyl]-4-carbonitrile-isomer-X] | – | – | 0.18 nM | – | 0.24 nM | 0.22 nM |
| CC(C)(O)Cn1nnc2cc(-c3ccc(C(=O)N4[C@@H]5CC[C@H]4C[C@@H](N)C5)cc3-c3ccc(C#N)c(F)c3)c(F)c(C3CC3)c21 [Example 281, 5′-((3-endo)-3-amino-8-azabicyclo[3.2.1]octane-8-carbonyl)-2′-(7-cyclopropyl-6-fluoro-1-(2-hydroxy-2-methylpropyl)-1H-benzo[d][1,2,3]triazol-5-yl)-3-fluoro-[1,1′-biphenyl]-4-carbonitrile] | – | – | 8.5 nM | – | 23.9 nM | 32.3 nM |
| CC(C)(O)Cn1nnc2cc(-c3ccc(C(=O)N4[C@@H]5CC[C@H]4C[C@@H](N)C5)cc3-c3ccc(C#N)c(F)c3)c(F)c(Cl)c21 [Example 211, 5′-((3-endo)-3-amino-8-azabicyclo[3.2.1]octane-8-carbonyl)-2′-(7-chloro-6-fluoro-1-(2-hydroxy-2-methylpropyl)-1H-benzo[d][1,2,3]triazol-5-yl)-3-fluoro-[1,1′-biphenyl]-4-carbonitrile] | – | – | 0.79 nM | – | 1.41 nM | 1.4 nM |
| CCC(O)(CC)Cn1nnc2cc(-c3ccc(CN4C5CCC4C(N)C5)cc3-c3ccc(C#N)c(F)c3)c(F)c(Br)c21 [Example 295, 5′-(((1S,2S,4R)-rel-2-amino-7-azabicyclo[2.2.1]heptan-7-yl)methyl)-2′-(7-bromo-1-(2-ethyl-2-hydroxybutyl)-6-fluoro-1H-benzo[d][1,2,3]triazol-5-yl)-3-fluoro-[1,1′-biphenyl]-4-carbonitrile-isomer-X dihydrochloride] | – | – | 0.066 nM | – | 0.049 nM | 0.24 nM |
| CC(C)(O)Cn1ccc2cc(-c3ccc(CN4C5CCC4C(N)C5)cc3-c3ccc(C#N)c(F)c3)c(F)cc21 [Example 289, 5′-(((1S,2S,4R)-rel-2-amino-7-azabicyclo[2.2.1]heptan-7-yl)methyl)-3-fluoro-2′-(6-fluoro-1-(2-hydroxy-2-methylpropyl)-1H-indol-5-yl)-[1,1′-biphenyl]-4-carbonitrile-isomer-X dihydrochloride] | – | – | 0.094 nM | – | 0.038 nM | 0.97 nM |
| Cc1c(F)c(-c2ccc(C(=O)N3C4CCC3C(N)C4)cc2-c2ccc(C#N)c(F)c2)cc2nnn(CC(C)(C)O)c12 [Example 228, 5′-((1S,2S,4R)-rel-2-amino-7-azabicyclo[2.2.1]heptane-7-carbonyl)-3-fluoro-2′-(6-fluoro-1-(2-hydroxy-2-methylpropyl)-7-methyl-1H-benzo[d][1,2,3]triazol-5-yl)-[1,1′-biphenyl]-4-carbonitrile-isomer-X] | – | – | 0.3 nM | – | 0.68 nM | 0.51 nM |
| Cc1c(F)c(-c2ccc(C(=O)N3[C@@H]4CC[C@H]3C[C@@H](N)C4)cc2-c2ccc(C#N)c(F)c2)cc2nnn(CC3(O)CCC3)c12 [Example 272, 5′-((3-endo)-3-amino-8-azabicyclo[3.2.1]octane-8-carbonyl)-3-fluoro-2′-(6-fluoro-1-((1-hydroxycyclobutyl)methyl)-7-methyl-1H-benzo[d][1,2,3]triazol-5-yl)-[1,1′-biphenyl]-4-carbonitrile] | – | – | 0.81 nM | – | 1.52 nM | 3.17 nM |
